PubChem BioAssay (NCI)
Values joined by “and” are separate entries in the source; they are usually repeats but may differ in a detail not shown here. Equal values may be shown once.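 48-hour exposure; five concentrations; linearly interpolated endpoints. At the GI50, growth is halved. TGI is the concentration that stops growth completely.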

Tests used:
Experiment in all cases: inhibition of tumour cell growth, NCI panel, 48 h
[1] = test system: HCC-2998 colon
[2] = test system: HCT-15 colon
[3] = test system: HL-60(TB) leukemia
[4] = test system: MOLT-4 leukemia
[5] = test system: OVCAR-4 ovarian
[6] = test system: OVCAR-5 ovarian
[7] = test system: SF-295 CNS
[8] = test system: SNB-19 CNS
[9] = test system: T-47D breast
[10] = test system: UO-31 renal

Structure (SMILES) | GI50 [1] [µM] | TGI [1] [µM] | GI50 [2] | TGI [2] | GI50 [3] | TGI [3] | GI50 [4] | TGI [4] | GI50 [5] | TGI [5] | GI50 [6] | TGI [6] | GI50 [7] | TGI [7] | GI50 [8] | TGI [8] | GI50 [9] | TGI [9] | GI50 [10] | TGI [10]
NC(=O)c1ccc(-c2c3ccccc3cc3c2ccc2ccccc23)cc1 | 5.22 | 82.4 | 2.81 µM | > 100 µM | 2.14 µM | > 100 µM | 5.5 µM | > 100 µM | 5.79 µM | 29.7 µM | 14.3 µM | > 100 µM | 5.11 µM | 31 µM | 5.51 µM | 46.9 µM | 3.19 µM | > 100 µM | 7.1 µM | 39.5 µM
O=C(N/N=C\c1cc(Cl)ccc1O)N/N=C/c1cc(Cl)ccc1O | 3.34 | > 100 | 0.676 µM | > 100 µM | 6.22 µM | > 100 µM | 57.5 µM | > 100 µM | 0.871 µM | > 100 µM | > 100 µM | > 100 µM | 2.37 µM | > 100 µM | > 100 µM | > 100 µM | 2.32 µM | > 100 µM | 0.489 µM | > 100 µM
CC(=O)OCC1OC(O[C@@H]2C[C@H]3C(C)(C)[C@H](OC(C)=O)CC[C@]3(C)[C@H]3CC[C@@H]4[C@]5(CC[C@@]4(C)[C@@]32C)O[C@@H]([C@H](O)C(C)(C)O)C[C@@H]5C)C(O)C(O)C1O (stereo not given in full) | 3.64 | 15.9 | 2.19 µM | 5.94 µM | 2.93 µM | 10.2 µM | 3.13 µM | 12.2 µM | 3.35 µM | 16.4 µM | 5.07 µM | 17.5 µM | 6.43 µM | 19.2 µM | 12.5 µM | 30.5 µM | 5.63 µM | 18.4 µM | 7.85 µM | 20.8 µM
CCNC1=CC(=O)c2ncccc2C1=O | 2.16 | 5.37 | 0.999 µM | 3.22 µM | 1.87 µM | 7.13 µM | 2.94 µM | 14.3 µM | 1.64 µM | 8.12 µM | 1.79 µM | 3.47 µM | 1.23 µM | 2.56 µM | 1.59 µM | 6.7 µM | 4.45 µM | 23.1 µM | 1.76 µM | 7.72 µM
Nc1ccccc1C#Cc1ccccc1C#CCCCCO | 14.6 | 30.1 | 19.8 µM | 42.5 µM | 23.2 µM | 51.8 µM | 22.7 µM | 68.1 µM | 34.1 µM | 70.6 µM | 25.6 µM | 64.4 µM | 29.2 µM | 81.2 µM | 35.7 µM | > 100 µM | 30.3 µM | > 100 µM | 20.3 µM | 54.8 µM
COc1cc([N+](=O)[O-])c2ncccc2c1O |  |  | 2.56 µM | 13.4 µM | 43.3 µM | > 100 µM | 49.1 µM | > 100 µM | 26.6 µM | > 100 µM | 5.09 µM | > 100 µM | 2.29 µM | 6.77 µM | 3.19 µM | > 100 µM | 27 µM | > 100 µM | 2.05 µM | 10.4 µM
COCCOC(=O)CCn1cc(F)c(=O)[nH]c1=O |  |  | 6.72 µg/mL | > 150 µg/mL | 13.6 µg/mL | > 150 µg/mL | 19.7 µg/mL | > 150 µg/mL | 20.4 µg/mL | > 150 µg/mL | 122 µg/mL | > 150 µg/mL | 33.2 µg/mL | > 150 µg/mL | 41.6 µg/mL | > 150 µg/mL | 73.4 µg/mL | > 150 µg/mL | 1.82 µg/mL | > 150 µg/mL
O=C(O)c1c(Cl)c(Cl)c(Cl)c(Cl)c1-c1c2cc(I)c(=O)c(I)c-2oc2c(I)c(O)c(I)cc12 | 36.5 | 70.8 | 55.7 µM | 162 µM | 73 µM and 42.9 µM | 85.2 µM | 40.8 µM | 86.2 µM | 93.1 µM and 43.9 µM | 105 µM | 41.9 µM | 163 µM | 38.1 µM | 78.7 µM | 38.2 µM and 28.6 µM | 63.8 µM | 29.4 µM | 78.2 µM | 43.5 µM | 107 µM
Fc1cc(Nc2ccc3c(OCCCN4CCOCC4)cccc3n2)ccc1Cl | 1.78 | 3.49 | 1.4 µM | 3.06 µM | 2.68 µM | 7.77 µM | 1.68 µM | 3.88 µM | 3.75 µM | 88.5 µM | 2.13 µM | 4.88 µM | 1.97 µM | 3.96 µM | 2.21 µM | 5.29 µM | 2.27 µM | 7.16 µM | 1.65 µM | 4.11 µM
O=C1CCC(c2ccccc2)(c2ccccc2)CC1 |  |  |  | > 100 µM |  | 81 µM |  | > 100 µM |  | > 100 µM |  | > 100 µM |  | > 100 µM |  | > 100 µM |  | > 100 µM |  | > 100 µM
COc1cc(Nc2ncc(-c3ccccc3)o2)cc(OC)c1OC | 5.08 | > 25 | 0.547 µM | > 25 µM | 0.858 µM | > 9.44 µM | 4.36 µM | > 25 µM | 1.05 µM | > 25 µM | 3.88 µM | > 25 µM | 2.7 µM | > 25 µM | 12.6 µM | > 25 µM | 0.231 µM | > 25 µM | 1.84 µM | > 25 µM
O=C(O)CCN1C(=O)/C(=C/C(Cl)=C/c2ccccc2)SC1=S | 1.88 | 3.38 | 1.77 µM | 6.82 µM | 1.85 µM | 7.64 µM | 1.98 µM | 8.12 µM | 4.79 µM | 18 µM | 2.77 µM | 6.8 µM | 2.7 µM | 8.05 µM | 3.41 µM | 13.3 µM | 1.71 µM | 6.52 µM | 1.56 µM | 3.06 µM
CC(Cl)CC(=O)Nc1ccc2c(c1)oc(=O)c1cc(NC(=O)CC(C)Cl)ccc12 (stereo not given) | 34.9 | > 100 | 13.2 µM | 45.8 µM | 9.03 µM | 29.3 µM | 10.2 µM | 34.4 µM | 11.3 µM | 29.4 µM | 16.8 µM | 46.3 µM | 10.1 µM | 36.5 µM | 20.4 µM | 69.7 µM | 16.2 µM | > 100 µM | 13.3 µM | 69.4 µM
